In paper PMC10907374, “G2019S selective LRRK2 kinase inhibitor abrogates mitochondrial DNA damage” (NPJ Parkinson's Disease, 2024):

Columns and labels:
LRRK2 kinase = settings: humans ref 15; cited from earlier work
wild-type HEK293 cells = test: Mitophagy (Mtphagy dye / Lyso dye live cell imaging) in wild-type HEK293 cells; assay type: cell-based, human; settings: 20 μM FCCP, 3 h
Procedure: (§1) Thirty-five mm cell culture dishes (Cellvis, D35-20-1.5-N) were coated with poly-D-lysine (Sigma-Aldrich, P7280-5MG) for 5 min, washed with cell culture grade water (Sigma-Aldrich, W3500), and allowed to dry for at least 1 h before plating. LRRK2^G2019S/G2019S KI HEK293 and wild-type cells were passaged as described above and plated at 300,000 cells per well on poly-D-lysine-coated dishes. […] Following this, cells were washed three times with serum-free medium, and a working solution of Mtphagy dye (Dojindo, MD-01) was prepared in serum-free medium according to manufacturer protocols. Cultures were incubated with Mtphagy dye for 30 min, followed by three washes with serum-free medium. Complete medium was used to prepare a 20 µM FCCP (Abcam, ab120081) or DMSO control treatment solution, which was used to treat cells for 3 h. Following treatment, cells were then washed 3 times with serum-free medium, and a working solution of Lyso dye (Dojindo, MD-01) was prepared in serum-free medium and used to treat cells for 30 min. Complete medium lacking phenol red was prepared for use in confocal live cell imaging by combining phenol red-free DMEM/F-12 (Fisher Scientific, 21-041-025), FBS (VWR, 97068-085), and penicillin-streptomycin (VWR, 45000-652). Following Lyso dye treatment, cultures were washed three times with phenol red-free medium, followed by adding fresh phenol red-free medium to cell culture dishes. MitoBright LT Deep Red (Dojindo, MT12-12) was diluted in growth medium to prepare a 0.1 μmol/l solution and was used to treat cells for 15 min for total mitochondrial staining. Live cell imaging (5% CO2, 37 °C) was performed using a Zeiss LSM 880 Confocal Laser Scanning Microscope with Zen Black software. On average, ~70 cells were analyzed for each condition per each experimental replicate.
(§2) Following imaging, files were processed using Zen Blue software, and TIFF files of each channel were obtained for analysis. ImageJ was used to obtain readouts for image analysis. All images were converted to 8-bit format. For each respective image, the Lyso dye channel was used to create a mask delineating each lysosomal focus as a region of interest (ROI). Thresholding parameters were adjusted between biological replicates as required to ensure that the Lyso dye ROI encompassed all lysosome foci appropriately, and this was used to create a mask. This was then applied to the corresponding Mtphagy dye channel image, allowing collection of Mtphgy fluorescence intensity readouts for each lysosomal focus. Outliers were removed using Prism software (GraphPad) with the coefficient of removal set to 0.2%. Data was thresholded to exclude lysosomes not containing mitochondria by excluding fluorescence values with intensities equal to or below background levels. The number of ROIs remaining after thresholding was used to quantify lysosomes containing fluorescing mitochondria (mitolysosomes). Fluorescence intensity values for all mitolysosomes per condition per biological replicate were averaged to obtain a value of mitophagy fluorescence intensity per mitolysosome. For each replicate, all values of average mitolysosome fluorescence intensity were normalized to wild-type (vehicle treated) levels for the given replicate.

[1] = test system: LRRK2^G2019S/G2019S KI HEK293 cells; test: Mitophagy (Mtphagy dye / Lyso dye live cell imaging) in LRRK2 G2019S/G2019S KI HEK293 cells; assay type: cell-based, human; settings: 20 μM FCCP, 3 h
Procedure: as §1, §2

Compound: CNc1nc(Nc2cn(C(C)(C)C#N)nc2C)ncc1C(F)(F)F [DNL201]
- inhibition of LRRK2 kinase by blood-based markers (LRRK2 kinase): dose-dependent inhibition

Compound: N#CC(C#N)=NNc1ccc(OC(F)(F)F)cc1 [FCCP]
- mitophagy following FCCP treatment (wild-type HEK293 cells): increased
- mitophagy following FCCP treatment [1]: defect
